According to ChEMBL document CHEMBL4422646, “Synthesis and biological evaluation of 3-amino-, 3-alkoxy- and 3-aryloxy-6-(hetero)arylpyridazines as potent antitumor agents” (Bioorg Med Chem Lett, 2019):

Assays:
[1] = system: HCT-116; assay: Antiproliferative activity against human HCT116 cells after 48 hrs by Hoechst 33342 staining-based assay; type: functional, cell-based; conditions: HCT-116, 48 h
[2] = system: PC-3; assay: Antiproliferative activity against human PC3 cells after 48 hrs by Hoechst 33342 staining-based assay; type: functional, cell-based; conditions: PC-3, 48 h
[3] = system: Huh-7; assay: Antiproliferative activity against human HuH7 cells after 48 hrs by Hoechst 33342 staining-based assay; type: functional, cell-based; conditions: Huh-7, 48 h
[4] = system: MDA-MB-231; assay: Antiproliferative activity against human MDA-MB-231 cells after 48 hrs by Hoechst 33342 staining-based assay; type: functional, cell-based; conditions: MDA-MB-231, 48 h
[5] = system: Caco-2; assay: Antiproliferative activity against human Caco2 cells after 48 hrs by Hoechst 33342 staining-based assay; type: functional, cell-based; conditions: Caco-2, 48 h
[6] = system: HaCaT; assay: Antiproliferative activity against human HaCaT cells after 48 hrs by Hoechst 33342 staining-based assay; type: cell-based
[7] = system: NCI-H727; assay: Antiproliferative activity against human NCI-H727 cells after 48 hrs by Hoechst 33342 staining-based assay; type: functional, cell-based; conditions: NCI-H727, 48 h
[8] = system: Fibroblast; assay: Antiproliferative activity against human fibroblast cells after 48 hrs by Hoechst 33342 staining-based assay; type: cell-based
[9] = system: Huh-7; assay: Antiproliferative activity against human HuH7 cells at 0.1 to 25 uM after 48 hrs by Hoechst 33342 staining-based assay relative to control; type: functional
[10] = system: HaCaT; assay: Antiproliferative activity against human HaCaT cells at 0.1 to 25 uM after 48 hrs by Hoechst 33342 staining-based assay relative to control; type: cell-based
[11] = system: HCT-116; assay: Antiproliferative activity against human HCT116 cells at 0.1 to 25 uM after 48 hrs by Hoechst 33342 staining-based assay relative to control; type: functional
[12] = system: MDA-MB-231; assay: Antiproliferative activity against human MDA-MB-231 cells at 0.1 to 25 uM after 48 hrs by Hoechst 33342 staining-based assay relative to control; type: functional
[13] = system: PC-3; assay: Antiproliferative activity against human PC3 cells at 0.1 to 25 uM after 48 hrs by Hoechst 33342 staining-based assay relative to control; type: functional

SMILES | IC50 [1] [µM] | IC50 [2] [µM] | IC50 [3] [µM] | IC50 [4] [µM] | IC50 [5] [µM] | IC50 [6] [µM] | IC50 [7] [µM] | IC50 [8] [µM] | Activity [9] [%] | Activity [10] [%] | Activity [11] [%] | Activity [12] [%] | Activity [13] [%]
CCCCOc1ccc(-c2ccc(C(=O)OCC)cc2)nn1 | > 25 | > 25 | > 25 | > 25 | > 25 | > 25 | > 25 | > 25 | – | – | – | – | –
COc1ccccc1-c1ccc(N2CCN(C)CC2)nn1 | > 25 | > 25 | 30 | > 25 | 50 | > 25 | > 25 | > 25 | 75 | – | – | – | –
Cc1cccc(-c2ccc(Oc3ccc(F)cc3)nn2)c1 | > 25 | > 25 | > 25 | > 25 | > 25 | > 25 | > 25 | > 25 | – | – | – | – | –
Cc1cccc(-c2ccc(N3CCOCC3)nn2)c1 | > 25 | > 25 | > 25 | > 25 | > 25 | > 25 | > 25 | > 25 | – | – | – | – | –
c1cc(-c2ccc(N3CCOCC3)nn2)cs1 | > 25 | > 25 | > 25 | > 25 | > 25 | > 25 | > 25 | > 25 | – | – | – | – | –
FC(F)(F)c1cccc(-c2ccc(N3CCOCC3)nn2)c1 | > 25 | > 25 | > 25 | > 25 | > 25 | > 25 | > 25 | > 25 | – | – | – | – | –
CCOC(=O)c1cccc(-c2ccc(N3CCOCC3)nn2)c1 | > 25 | > 25 | > 25 | > 25 | > 25 | > 25 | > 25 | > 25 | – | – | – | – | –
COC(=O)c1cccc(-c2ccc(-n3cccc3)nn2)c1 | > 25 | > 25 | 30 | > 25 | 50 | > 25 | > 25 | > 25 | 75 | – | – | – | –
FC(F)(F)c1cccc(-c2ccc(N3CCCC3)nn2)c1 | > 25 | > 25 | 30 | > 25 | 50 | > 25 | > 25 | > 25 | 75 | – | – | – | –
c1ccc(Oc2ccc(-c3ccsc3)nn2)cc1 | > 25 | > 25 | > 25 | > 25 | > 25 | > 25 | > 25 | > 25 | – | – | – | – | –
CCN(CC)c1ccc(-c2ccc(C(=O)O)cc2)nn1 | > 25 | > 25 | > 25 | > 25 | > 25 | > 25 | > 25 | > 25 | – | – | – | – | –
Oc1cccc(-c2nc(N3CCOCC3)c3oc4ncccc4c3n2)c1 [PI-103] | 3 | 1.2 | 6 | 8 | 0.8 | 2 | > 25 | > 25 | 40 | 70 | 80 | 40 | 60
c1ccc(-c2ccc(N3CCOCC3)nn2)cc1 | > 25 | > 25 | > 25 | > 25 | > 25 | > 25 | > 25 | > 25 | – | – | – | – | –
CCOC(=O)c1ccc(-c2ccc(OC(C)C)nn2)cc1 | > 25 | > 25 | > 25 | > 25 | > 25 | > 25 | > 25 | > 25 | – | – | – | – | –
CCN(CC)c1ccc(-c2cccc(C#N)c2)nn1 | > 25 | > 25 | > 25 | > 25 | > 25 | > 25 | > 25 | > 25 | – | – | – | – | –
COc1ccc(-c2ccc(Oc3ccccc3)nn2)cc1 | > 25 | > 25 | > 25 | > 25 | > 25 | > 25 | > 25 | > 25 | – | – | – | – | –
COc1ccc(-c2ccc(N3CCOCC3)nn2)cc1 | > 25 | > 25 | > 25 | > 25 | > 25 | > 25 | > 25 | > 25 | – | – | – | – | –
CCN(CC)c1ccc(-c2cccc(Cl)c2)nn1 | > 25 | > 25 | > 25 | > 25 | > 25 | > 25 | > 25 | > 25 | – | – | – | – | –

SMILES | IC50 [1] [µM] | IC50 [2] [µM] | IC50 [3] [µM] | IC50 [4] [µM] | IC50 [5] [µM] | IC50 [6] [µM] | IC50 [7] [µM] | IC50 [8] [µM] | Activity [9] [%] | Activity [10] [%] | Activity [11] [%] | Activity [12] [%] | Activity [13] [%]
Fc1ccc(-c2ccc(N3CCOCC3)nn2)cc1 | > 25 | > 25 | > 25 | > 25 | > 25 | > 25 | > 25 | > 25 | – | – | – | – | –
CCN(CC)c1ccc(-c2ccc(C#N)cc2)nn1 | > 25 | > 25 | > 25 | > 25 | > 25 | > 25 | > 25 | > 25 | – | – | – | – | –
CCOC(=O)c1ccc(-c2ccc(N3CCOCC3)nn2)cc1 | > 25 | > 25 | > 25 | > 25 | > 25 | > 25 | > 25 | > 25 | – | – | – | – | –
CC(=O)c1cccc(-c2ccc(OCc3ccccc3)nn2)c1 | > 25 | > 25 | > 25 | > 25 | > 25 | > 25 | > 25 | > 25 | – | – | – | – | –
CCN(CC)c1ccc(-c2cccc(OC)c2)nn1 | > 25 | > 25 | > 25 | > 25 | > 25 | > 25 | > 25 | > 25 | – | – | – | – | –
c1cncc(-c2ccc(N3CCOCC3)nn2)c1 | > 25 | > 25 | > 25 | > 25 | > 25 | > 25 | > 25 | > 25 | – | – | – | – | –
CCCCOc1ccc(-c2cccc(C#N)c2)nn1 | > 25 | > 25 | > 25 | > 25 | > 25 | > 25 | > 25 | > 25 | – | – | – | – | –
FC(F)(F)c1cccc(-c2ccc(Oc3ccccc3)nn2)c1 | > 25 | > 25 | > 25 | > 25 | > 25 | > 25 | > 25 | > 25 | – | – | – | – | –
CCOC(=O)c1ccccc1-c1ccc(N2CCOCC2)nn1 | > 25 | > 25 | > 25 | > 25 | > 25 | > 25 | > 25 | > 25 | – | – | – | – | –
Cc1ccc(-c2ccc(N3CCN(c4ccccc4)CC3)nn2)cc1 | > 25 | > 25 | 30 | > 25 | 50 | > 25 | > 25 | > 25 | 75 | – | – | – | –
CN1CCN(c2ccc(-c3cccc(C(F)(F)F)c3)nn2)CC1 | > 25 | > 25 | 30 | > 25 | 50 | > 25 | > 25 | > 25 | 75 | – | – | – | –
CC(=O)c1ccc(-c2ccc(N3CCCC3)nn2)cc1 | > 25 | > 25 | 30 | > 25 | 50 | > 25 | > 25 | > 25 | 75 | – | – | – | –
COc1ccc(Nc2ccc(-c3ccccc3)nn2)cc1 | > 25 | > 25 | 30 | > 25 | 50 | > 25 | > 25 | > 25 | 75 | – | – | – | –
c1ccc2nc(-c3ccc(N4CCOCC4)nn3)ccc2c1 | > 25 | > 25 | > 25 | > 25 | > 25 | > 25 | > 25 | > 25 | – | – | – | – | –
N#Cc1ccc(Oc2ccc(-c3ccccc3)nn2)cc1 | > 25 | > 25 | > 25 | > 25 | > 25 | > 25 | > 25 | > 25 | – | – | – | – | –
CCOC(=O)c1ccc(-c2ccc(OCC)nn2)cc1 | > 25 | > 25 | > 25 | > 25 | > 25 | > 25 | > 25 | > 25 | – | – | – | – | –
CCN(CC)c1ccc(-c2cccc(C(F)(F)F)c2)nn1 | > 25 | > 25 | > 25 | > 25 | > 25 | > 25 | > 25 | > 25 | – | – | – | – | –
